Like-named read-outs stand apart in the source and are kept apart here.
Legend:
[1] = biological target: T1, CDK6 (GST-CDK6(1-326end)) (Homo sapiens, UniProt Q00534); assay: CDK6 activity inhibition experiment (Caliper mobility shift assay); assay type: biochemical; details: enzyme activity inhibition; read-out: CDK6 IC50 class
T1 construct: GST-CDK6(1-326end); purchased Carna 04-107
Protocol: The activity of CDK6 protein kinase was measured using Caliper mobility shift assay (see J. Biomol Screen 14:31, 2009). […] 10 μl of the 2.5 times diluted CDK6 enzyme solution (GST-CDK6(1-326end); Carna, Cat. No 04-107) was added and then incubated at room temperature for 10 minutes, then 10 μl of the 2.5 times diluted substrate solution Peptide FAM-P8 (GL Biochem, Cat. No. 112396) was added. After being incubated at 28° C. for 40 minutes, 25 μl of stop solution was added to stop the reaction. Conversion rate data was read from Caliper EZ Reader II (Caliper Life Sciences). The conversion rate data was converted into inhibition rate data. […] Conversion rate data was converted into inhibition rate data according to the method described above. Inhibition rate %=(max−conversion rate)/(max−min)×100.

SW620 = assay: Tumor cell proliferation inhibition (CellTiter-Glo), SW620; assay type: cell-based; details: Homo sapiens, SW-620; 72 hours, 10% fetal bovine serum; read-out: SW620 IC50 class
Protocol: (§1) The content of adenosine triphosphate (ATP) was determined using the CellTiter-Glo Luminescent Cell Viability Assay Kit (Promega, Madison, Wis.) to evaluate cell viability. Tumor cell lines (SW620, ZR-75-1, MDA-MB-231) were purchased from the Cell Resource Center of IBS, Fudan University, Shanghai and the American Type Culture Collection (ATCC). The cell density was determined using Scepter automated cell counter (Millipore # PHCC00000) after the cells were digested with pancreatin in cell culture dishes and resuspended in DPBS medium. The cells were diluted to a solution of 44,000 cells per ml. The cell solution of which density was adjusted was added into the cell assay plate at 90 microliters per well. The well plate was incubated in an incubator with 5% CO2 at 37° C. for 24 hours and then added with test compounds with different concentrations. The cells were incubated with the compounds in the presence of 10% fetal bovine serum for 72 hours. ATP content was assayed using the CellTiter-Glo® Luminescent Cell Viability Assay kit (see instructions of manufacturer) to assess cell growth inhibition. Briefly, 30 μl of CellTiter-Glo® reagent was added to each well, rocked for 10 minutes to induce cell lysis, and […] were detected and recorded with Fluoroskan Ascent FL (Thermo). The maximum signal value was obtained from the cells treated with dimethyl sulfoxide for 72 hours. The minimum signal value was obtained from the separate culture medium (cell number was zero). Inhibition rate %=(maximum signal value−compound signal value)/(maximum signal value−minimum signal value)×100. Data was processed using GraphPad Prism V5.0 (GraphPad Software, San Diego, Calif.) software. IC50 values were calculated by fitting S-shaped dose-response curves.

[2] = Pharmacokinetic (PK) experiment in rats; assay type: in vivo; details: male, SD, plasma, po, rat, intragastric 20 mg/kg; for AUC(0-t): 0-24 hour
Protocol: Male SD rats weighing 300-350 g were fasted overnight prior to the experiment. The compounds to be tested were dissolved in 30% sulfobutyl ether-β-cyclodextrin (SBE-β-CD) and the rats were intragastric administration at 20 mg/kg. The blood was taken from the tails of the rats at 15 min, 30 min, and 1, 2, 3, 4, 6, 8 and 24 hours after administration, with about 0.3 ml of blood at each time point, and then the blood was placed in a centrifuge tube containing K2-EDTA, and centrifuged (2,000 g, 10 min, 4° C.) to take the plasma which was then stored in an ultra-low temperature freezer at −80° C. 50 μL, of plasma sample was mixed with 5 μL of internal standard (IS) and extracted with ethyl acetate. The residue was redissolved in acetonitrile after vacuum drying. The sample was filtered and injected into LC-MS/MS for analysis to determine the concentration of the compounds to be tested.
In the table: Tmax refers to the peak time, Cmax refers to the maximum plasma drug concentration, T1/2 is the half-life, AUClast refers to the area under the 0-24 hour time-concentration curve, AUCinf refers to the area under the 0-Inf time-concentration curve.

[3] = test system: MDA-MB-231 breast cancer cells; assay: Cell cycle inhibition experiment (PI staining, flow cytometry); assay type: cell-based; details: Homo sapiens, MDA-MB-231 cells, 24 h
From the text: The cell cycle and apoptosis assay kit (Beyotime, C1052) used in this experiment is an assay kit for analyzing the cell cycle and apoptosis using the classic method of Propidium staining (PI staining). Propidium (PI) is a double-stranded DNA fluorescent dye. The combination of propidium and double-stranded DNA can produce fluorescence, and fluorescence intensity is proportional to the amount of double-stranded DNA. After DNA in cells is stained with propidium, the DNA content of the cells can be measured by flow cytometry, and then the cell cycle and apoptosis can be analyzed according to the distribution of DNA content.
MDA-MB-231 cells were seeded into a 6-well plate at 3×10^5 per well and cultured for 24 hours.
In tumor cell cycle, the binding of CDK4 and CDK6 to cyclin D promotes G1 phase into S phase. CDK4/6 inhibitor selectively arrests the G1 phase of tumor cells into S phase. The detection results of the cell cycle of MDA-MB-231 breast cancer cells by flow cytometry indicate that the CDK4/6 inhibitor compounds provided by the present disclosure stop the growth of G1 phase cells and reduce S phase cells in a concentration-dependent manner, as shown in the following table.

ZR-75-1 = assay: Tumor cell proliferation inhibition (CellTiter-Glo), ZR-75-1; assay type: cell-based; details: Homo sapiens, 72 hours, 10% fetal bovine serum, read-out: ZR-75-1 IC50 class
Protocol: as §1

[4] = test system: locally advanced or metastatic breast cancer, ER+ / HER2−; details: cited from earlier work
MDA-MB-231 = assay: Tumor cell proliferation inhibition (CellTiter-Glo), MDA-MB-231; assay type: cell-based; details: Homo sapiens, 72 hours, 10% fetal bovine serum, read-out: MDA-MB-231 IC50 class
Protocol: as §1

[5] = cited from earlier work
[6] = test system: MDA-MB-435 breast cancer cells; assay: Pharmacodynamic experiment, MDA-MB-435 xenograft; assay type: in vivo, mouse
Protocol: MDA-MB-435 breast cancer cells were obtained from Shanghai Cell Bank of Chinese Academy of Sciences. Cryopreserved cells were thawed in a 37° C. water bath and then placed in RPMI 1640 medium supplemented with 10% fetal bovine serum (FBS), 1% insulin (Bioman Biotech, Shanghai) and incubated in 5% CO2 of Tissue Culture Incubator. […] The sign of successful transplantation was the formation of a round bulging lump under the skin. Tumor size can be measured approximately two weeks after implantation. The tumor size was measured by a caliper.

[7] = biological target: T2, CDK4 (GST-CDK4(1-303end)/GST-CycD3(1-292end)) (Homo sapiens, UniProt P11802); assay: CDK4 activity inhibition experiment (Caliper mobility shift assay); assay type: biochemical; details: enzyme activity inhibition; read-out: CDK4 IC50 class
T2 construct: GST-CDK4(1-303end); purchased Carna 04-105
T2 sequence (P11802 whole entry): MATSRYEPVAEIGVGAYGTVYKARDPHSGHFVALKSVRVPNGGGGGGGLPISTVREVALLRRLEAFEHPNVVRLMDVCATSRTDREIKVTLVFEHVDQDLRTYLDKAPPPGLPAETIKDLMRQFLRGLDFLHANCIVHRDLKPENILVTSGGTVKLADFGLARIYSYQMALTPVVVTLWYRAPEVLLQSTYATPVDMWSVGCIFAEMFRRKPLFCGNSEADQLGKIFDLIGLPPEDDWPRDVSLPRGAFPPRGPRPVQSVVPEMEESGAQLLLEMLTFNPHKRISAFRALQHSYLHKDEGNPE
T2 sequence (P30281 whole entry partner): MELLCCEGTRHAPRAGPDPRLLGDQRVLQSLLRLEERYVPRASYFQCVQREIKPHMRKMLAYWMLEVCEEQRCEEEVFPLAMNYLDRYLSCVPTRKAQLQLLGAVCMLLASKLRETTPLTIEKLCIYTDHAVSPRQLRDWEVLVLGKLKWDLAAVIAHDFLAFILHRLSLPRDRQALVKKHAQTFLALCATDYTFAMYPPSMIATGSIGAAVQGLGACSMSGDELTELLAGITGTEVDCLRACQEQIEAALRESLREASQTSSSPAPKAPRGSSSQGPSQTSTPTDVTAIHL

CDK2 = biological target: T3, CDK2 (Homo sapiens, UniProt P24941); assay: CDK2 activity inhibition experiment (Caliper mobility shift assay); assay type: biochemical; details: enzyme activity inhibition; read-out: CDK2 IC50 class
T3 construct: purchased Carna 04-103
Protocol: After being incubated at 28° C. for 60 minutes, 25 μl of stop solution was added to stop the reaction. Conversion rate data was read from Caliper EZ Reader II (Caliper Life Sciences). The conversion rate data was converted into inhibition rate data. […] The curve was plotted with compound concentration and inhibition rate as horizontal and vertical coordinates, and the IC50 was calculated by fitting the curve using XLFit excel add-in version 4.3.1 software. Inhibition rate %=(max-conversion rate)/(max-min)×100.

[8] = test system: phosphorylation of Rb at Ser780 in MDA-MB-231 breast cancer cells; assay: Western Blot experiment, Rb phosphorylation; assay type: cell-based; details: MDA-MB-231 cells, 16 hours incubation, FIG. 1
Protocol: MDA-MB-231 cells were grown in monolayer culture. […] The protein concentration was determined by the Branfor method. After being added with a loading buffer (Beyotime, # P0015L), the supernatant was boiled at 100° C. for 8 min, and the protein was separated by 8%-10% SDS-PAGE electrophoresis and then transferred to the PVDF membrane, and the membrane was blocked with 5% skimmed milk powder for 45 min, and then the cells were incubated overnight at 4° C. with primary antibody β-actin (CST, #4970), Rb (D20) Rabbit mAb (CST, #9313), Phospho-Rb(Ser780)(D59B7) Rabbit mAb (CST, #8180), and then the membrane was washed with TBST solution for 3×10 min. The cells were incubated in the dark at room temperature for 2 h with the fluorescent secondary antibody IRDye@680CW Goat (polyclonal) Anti-Rabbit 1gG (H+L), Highly Cross Adsorbed (LI-COR, #926-68071), and then the membrane was washed under the same condition above. Finally, the membrane was detected and imaged on a LI-COR Odyssey Infrared Fluorescence Scanning System, and the results are shown in FIG. 1.
CDK4/6 can make Rb protein lose the arrest on cell cycle by phosphorylating the tumor suppressor protein Rb protein. CDK4/6 inhibitor can prevent the inactivation of tumor suppressor protein Rb and thereby restore the arrest of Rb on cell cycle.

T1 sequence (Q00534 whole entry): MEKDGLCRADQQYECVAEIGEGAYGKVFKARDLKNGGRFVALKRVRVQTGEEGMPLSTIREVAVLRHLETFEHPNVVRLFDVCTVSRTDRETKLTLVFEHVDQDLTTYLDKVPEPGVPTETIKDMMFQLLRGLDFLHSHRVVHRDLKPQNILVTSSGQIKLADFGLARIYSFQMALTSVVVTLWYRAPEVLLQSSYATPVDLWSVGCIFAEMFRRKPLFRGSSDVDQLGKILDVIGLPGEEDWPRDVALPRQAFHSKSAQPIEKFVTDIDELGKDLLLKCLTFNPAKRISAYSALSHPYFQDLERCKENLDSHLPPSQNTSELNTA
T1 sequence (P30281 whole entry partner): as the sequence (P30281 whole entry partner) above

| Compound | IC50 [1] [nM] | IC50 (SW620) [nM] | IC50 ([3]; read-out: IC50 (nM) G1 arrest) [nM] | IC50 ([3]; read-out: IC50 (nM) S decrease) [nM] | IC50 (ZR-75-1) [nM] | IC50 (MDA-MB-231) [nM] | IC50 [7] [nM] | IC50 (CDK2) [nM] | other results |
| --- | --- | --- | --- | --- | --- | --- | --- | --- | --- |
| CC(=O)c1c(C)c2cnc(Nc3ccc(C4CCN(CCS(=O)(=O)c5ccc(Cl)cc5)CC4)cn3)nc2n(C2CCCC2)c1=O [Compound 4, 6-acetyl-2-((5-(1-(2-((4-chlorophenyl)sulfonyl)ethyl)piperidin-4-yl)pyridin-2-yl)amino)-8-cyclopentyl-5-methylpyrido[2,3-d]pyrimidin-7(8H)-one] | > 500 |  |  |  |  |  |  |  |  |
| CC(=O)c1c(C)c2cnc(Nc3ccc(N4CCNCC4)cn3)nc2n(C2CCCC2)c1=O [PD-0332991, Palbociclib, reference compound] |  | 100 to 500 | 42.4 ± 16.1 | 45.1 ± 10.9 | 100 to 500 | 100 to 500 |  |  | Cmax [2]: 213 ng/mL; Tmax [2]: 1.2 h; half-life [2]: 10 h; AUC(0-t) [2]: 1250 ng·h/mL; AUC(0-inf) [2]: 1400 ng·h/mL; side effects ([4]; clinical, Pfizer Press Release): leukocyte reduction and fatigue; elimination half-life (Average) ([5]; Phase I clinical): 25.9 h; AUC ([5]; Phase I, single oral dose of 25-150 mg): 58 to 641 ng·h/mL; average body weight of the mice ([6]; after 6 days of oral 150 mg/kg once daily): significantly reduced; T/C value ([6]; after 14 days of oral administration, PD-0332991 150 then 100 mg/kg once daily, Compound 1 75 mg/kg twice daily): 41%; T/C value ([6]; day 6 after discontinuation (D20)): 35% |
| CC(=O)c1c(C)c2cnc(Nc3ccc(C4CCN(CCCS(C)(=O)=O)CC4)cn3)nc2n(C2CCCC2)c1=O [Compound 2, 6-acetyl-8-cyclopentyl-5-methyl-2-((5-(1-(3-(methylsulfonyl)propyl)piperidin-4-yl)pyridin-2-yl)amino)pyrido[2,3-d]pyrimidin-7(8H)-one] | 10 to 50 | 100 to 500 | 39.8 | 40.9 | ≤ 100 | 100 to 500 | < 10 | > 500 | Cmax [2]: 860 ng/mL; Tmax [2]: 2.7 h; half-life [2]: 5 h; AUC(0-t) [2]: 11200 ng·h/mL; AUC(0-inf) [2]: 11700 ng·h/mL; phosphorylation of Rb at Ser780 site [8]: effectively reduce |
| N#Cc1ccc(C(c2ccc(C#N)cc2)n2cncn2)cc1 [letrozole] |  |  |  |  |  |  |  |  | progression-free survival (PFS) ([4]; phase II, postmenopausal women, ER+ HER2− breast cancer, p=0.0004): 10.2 months |
| CC(=O)c1c(C)c2cnc(Nc3ccc(C4CCN(CCS(C)(=O)=O)CC4)cn3)cc2n(C2CCCC2)c1=O [Compound 13, 3-acetyl-1-cyclopentyl-4-methyl-7-((5-(1-(2-(methylsulfonyl)ethyl)piperidin-4-yl)pyridin-2-yl)amino)-1,6-naphthyridin-2(1H)-one] | 10 to 50 | 1000 to 5000 |  |  | 500 to 1000 | 500 to 1000 | < 10 | > 500 |  |
| CN(C)C(=O)c1cc2cnc(Nc3ccc(N4CCNCC4)cn3)nc2n1C1CCCC1 [LEE011, reference compound] |  | 500 to 1000 |  |  | ≤ 100 | 1000 to 5000 |  |  |  |
| CCN1CCN(Cc2ccc(Nc3ncc(F)c(-c4cc(F)c5nc(C)n(C(C)C)c5c4)n3)nc2)CC1 [LY2835219, reference compound] |  | 100 to 500 | 35.2 ± 8.9 | 42.9 ± 13.5 | ≤ 100 | 100 to 500 |  |  |  |
| CC(=O)c1c(C)c2cnc(Nc3ccc(C4CCCN(CCS(C)(=O)=O)C4)cn3)nc2n(C2CCCC2)c1=O (stereo not shown) [Compound 5, 6-acetyl-8-cyclopentyl-5-methyl-2-((5-(1-(2-(methylsulfonyl)ethyl)piperidin-3-yl)pyridin-2-yl)amino)pyrido[2,3-d]pyrimidin-7(8H)-one] | 10 to 50 | 100 to 500 |  |  | 100 to 500 | 500 to 1000 | 10 to 50 | > 500 |  |

Source: patent US10183941B2, “Pyrimidine or pyridopyridone compound and application thereof” (GUANGZHOU BEBETTER MEDICINE TECHNOLOGY CO., LTD., priority 2015, dated 2019)
